Reference: a melting point compilation (Tetko et al.; mined from patent text by program, amines drawn as free bases though some values may be those of a salt)

melting point [°C]	SMILES
111 to 112	CCN1CCN(Cn2nc(-c3ccsc3)c3c2-c2ccccc2C3)CC1
279 to 281	Cc1cc(Cl)ccc1-n1nc(O)c2[nH]c3cc(Cl)ccc3c(=O)c2c1=O
141	COc1ccc(-c2cc(=S)n(CC=Cc3ccc(F)cc3F)nc2-c2ccc(OC)cc2)cc1
161	Cc1c(C(=O)NCc2ccccc2)nc2n1CCc1ccccc1C2OC1CCN(C)CC1 (stereo not given)
86 to 87	CCCc1c(OCCCOc2ccc(C(=O)OCC)cc2)ccc(C(C)=O)c1O
160	Cc1cc(-c2cc(C(F)(F)F)n3ncc(I)c3n2)ccc1C(F)(F)F
173 to 175	CN1CNC(=S)N(c2ccc(F)cc2)C1
117 to 119	COc1ccc(C(=O)NCCCN(CCCNC(=O)c2ccc(OC)cc2)C(=O)c2ccc(OC)cc2)cc1
112 to 113	O=Cc1cccc2c1OC(c1ccccc1)CC2=O (stereo not given)
198 to 200	O=C(O)c1cccc(Cc2cc(Cl)cc(Cc3ccccc3O)c2O)c1O
62 to 65	Nc1cccc(CCCOCCCCCCNCC(O)c2cc(Cl)c(N)c(Cl)c2)n1 (stereo not given)
75 to 77	COc1ccc(C2(C#N)CCC(=NO)CC2)cc1OCC1CC1 (stereo not given)
177 to 180	CCOC(=O)c1ncc2[nH]c3ccc(C4COC(O)C4)cc3c2c1C (stereo not given)
204 to 205	COc1cc(C(=O)O)ccc1Cc1c(Cl)n(C)c2ccc(CC3CCN(C)C3=O)cc12 (stereo not given)
108 to 110	CN(C)C1=NC(=O)C(Cc2cccc(-c3ccc(O)c(C4(C)CCCCC4)c3)c2)S1 (stereo not given)
197 to 201	O=C(O)Cc1ccc(OCc2cc(Cl)ccc2C(=O)O)cc1
155 to 157	O=C(NCCCCOc1ccc(-c2ccc(=O)[nH]n2)cc1)c1cccnc1
> 240	N=C(N)c1ccc(O)c([N+](=O)[O-])c1
100	CCOC(=O)Nc1c(C(=O)OCC)oc2cc(OCc3ccccc3)ccc12

melting point [°C]	SMILES
145 to 147	CN(C)CCNC(=O)c1ccc(-c2cnc3c(c2)N(C(=O)c2ccccc2)CCN3)cc1
131 to 132	CC(=O)N1CCc2c(cccc2NS(=O)(=O)c2ccccc2)C1
203 to 205	O=C(NCCO)/C(=C/c1ccc(C(F)(F)F)cc1F)NC(=O)c1ccc(OCCC(F)(F)F)cc1
68 to 71	CCOC(=O)c1c(C(C)C)nc2c(c(C)nn2C)c1-c1ccc(F)cc1
112 to 114	CCCC(=O)NCCc1c[nH]c2ccc(OCc3ccccc3)cc12
245 to 251	COc1c(Cl)cc(-c2ccc(=O)[nH]n2)cc1Cl
182 to 183	CC(C)n1cnc2c(NCc3cccc(O)c3O)nc(NC[C@@H](C)O)nc21
181 to 192	O=C(Nc1ccc(C(=O)N2CCc3cn[nH]c3-c3ncccc32)c(Cl)c1)c1ccccc1-c1ccccc1
148 to 149	CN1C(=O)CC2(CC1=O)c1ccccc1Oc1ccccc12
147 to 148	O=C(O)CNc1cc(Cl)ccc1[N+](=O)[O-]
> 297	N=C(N)NCc1cc(CCC(=O)O)no1
266 to 267	CS(=O)c1ccc(-c2coc3ccc(-c4nnc(N)o4)cc23)cc1Cl (stereo not given)
99 to 101	Cc1ccc(S(=O)(=O)OCC2Cc3cccc(-c4ccccc4F)c3O2)cc1 (stereo not given)
178	CC1CCc2nc(=O)c(-c3ccccc3)cn21 (stereo not given)
> 250	Nc1ncc(-c2cnc3[nH]c(=O)n(CC4CCCCC4)c3n2)cn1
238 to 240	O=C1Nc2ccccc2C12CCCC2Br (stereo not given)
219	O=c1cc(-c2ccncc2)nc2n1CCCN2
125 to 128	Cc1noc(NS(=O)(=O)c2cccc(F)c2)c1Br
210	O=C(OCc1ccccc1)C(C(=O)N1CC2C(=O)CCC(c3ccccc3)(c3ccccc3)C2C1)c1ccccc1 (racemic)

SMILES	melting point [°C]
COc1ccc(C(N)CN)cc1 (stereo not given)	64
O=C(O)c1cn(CC2CC2)c2cc(Cl)ccc12	219 to 220
